# ChEMBL document CHEMBL4190198, “Celastrofurans A-G: Dihydro-β-agarofurans from the Australian Rainforest Vine Celastrus subspicata and Their Inhibitory Effect on Leucine Transport in Prostate Cancer Cells” (J Nat Prod, 2017)
# Assay: Inhibition of L-type amino acid transporter in human LNCAP cells assessed as reduction in [3H]-L-Leucine uptake after 15 mins by liquid scintillation counting method
# Assay type: cell-based
row,Compound,IC50 [µM]
1,CC(=O)O[C@@H]1C[C@@H](C)[C@@]23C[C@@H](C[C@H](OC(=O)c4ccccc4)[C@]2(C)[C@H]1OC(=O)c1ccoc1)C(C)(C)O3,34.5
2,C[C@@H]1CC[C@H](OC(=O)c2ccoc2)[C@@]2(C)[C@@H](OC(=O)c3ccccc3)C[C@@H]3C[C@]12OC3(C)C,19.7
3,CC(=O)O[C@@H]1C[C@@H](C)[C@@]23C[C@@H]([C@@H](O)[C@H](OC(=O)c4ccccc4)[C@]2(C)[C@H]1OC(=O)c1ccoc1)C(C)(C)O3,98.9
4,CC(=O)O[C@@H]1[C@@H]2C[C@]3(OC2(C)C)[C@H](C)C[C@@H](OC(C)=O)[C@H](OC(=O)c2ccoc2)[C@@]3(C)[C@H]1OC(=O)c1ccccc1,15.2
5,CC(=O)O[C@@H]1C[C@@H](C)[C@@]23C[C@@H](C[C@H](OC(=O)c4ccccc4)[C@]2(C)[C@H]1OC(=O)c1ccccc1)C(C)(C)O3,7
6,C[C@@H]1CC[C@H](OC(=O)c2ccccc2)[C@@]2(C)[C@@H](OC(=O)c3ccccc3)C[C@@H]3C[C@]12OC3(C)C,27.6
7,CC(=O)O[C@@H]1C[C@@H](C)[C@@]23C[C@@H](C(=O)[C@H](OC(=O)c4ccccc4)[C@]2(C)[C@H]1OC(=O)c1ccoc1)C(C)(C)O3,13.4
8,CC(=O)O[C@@H]1C[C@@H](C)[C@@]23C[C@@H](C[C@H](OC(=O)c4ccoc4)[C@]2(C)[C@H]1OC(=O)c1ccoc1)C(C)(C)O3,75.3
9,CC(=O)O[C@@H]1C[C@@H](C)[C@@]23C[C@@H]([C@@H](O)[C@H](OC(=O)c4ccccc4)[C@]2(C)[C@H]1OC(=O)c1ccccc1)C(C)(C)O3,82.3
